Where a name gives a salt, the structure may show the parent alone.
The compounds below were run on HBV. Conditions: Hepatitis B virus, HePAD38, 144 h, read-out: Cell Activity (EC50).
For `O=C(c1cc2ccccc2[nH]1)N1CCn2nc(NC3(c4ccccc4)CC3)cc2C1` [Example 84, 5-(1H-indole-2-carbonyl)-N-(1-phenylcyclopropyl)-4H,5H,6H,7H-pyrazolo[1,5-a]pyrazin-2-amine], the EC50 was < 1 µM.
`O=C(Nc1cc2n(n1)CCN(C(=O)c1cc3ccccc3[nH]1)C2)C1CCNCC1F` (centres unmarked) [Example 85, 3-fluoro-N-[5-(1H-indole-2-carbonyl)-4H,5H,6H,7H-pyrazolo[1,5-a]pyrazin-2-yl]piperidine-4-carboxamide Trihydrochloride] was tested, and the EC50 was < 1 µM.
With `O=C(Nc1cc2n(n1)CCN(C(=O)c1cc3ccccc3[nH]1)C2)C1CCN(c2ccncc2)CC1` [Example 57, N-[5-(1H-indole-2-carbonyl)-4H,5H,6H,7H-pyrazolo[1,5-a]pyrazin-2-yl]-1-(pyridin-4-yl)piperidine-4-carboxamide] the EC50 was < 1 µM.
In the case of `COC1(CNc2cc3n(n2)CCN(C(=O)c2cc4ccccc4[nH]2)C3)CCOC1` (centres unmarked) [Example 94, 5-(1H-indole-2-carbonyl)-N-[(3-methoxyoxolan-3-yl)methyl]-4H,5H,6H,7H-pyrazolo[1,5-a]pyrazin-2-amine], the EC50 is reported as < 1 µM.
`CNC(=O)Nc1cc2n(n1)CCN(C(=O)c1cc3ccccc3[nH]1)C2` [Example 67, 1-[5-(1H-indole-2-carbonyl)-4H,5H,6H,7H-pyrazolo[1,5-a]pyrazin-2-yl]-3-methylurea] was tested, and the EC50 was < 1 µM.
For `O=C(Nc1cc2n(n1)CCN(C(=O)c1cc3ccccc3[nH]1)C2)C1CCNCC1(F)F` (centres unmarked) [Example 73, 3,3-difluoro-N-[5-(1H-indole-2-carbonyl)-4H,5H,6H,7H-pyrazolo[1,5-a]pyrazin-2-yl]piperidine-4-carboxamide], the EC50 was < 1 µM.
With `CCc1cc(F)cc2[nH]c(C(=O)N3CCn4nc(NC(=O)C5CCOC5)cc4C3)cc12` (centres unmarked) [Example 23, N-[5-(4-ethyl-6-fluoro-1H-indole-2-carbonyl)-4H,5H,6H,7H-pyrazolo[1,5-a]pyrazin-2-yl]oxolane-3-carboxamide] the EC50 was < 1 µM.
With `O=C(Nc1cc2n(n1)CCN(C(=O)c1cc3c(F)cc(F)cc3[nH]1)C2)C1CCOC1` (centres unmarked) [Example 22, N-[5-(4,6-difluoro-1H-indole-2-carbonyl)-4H,5H,6H,7H-pyrazolo[1,5-a]pyrazin-2-yl]oxolane-3-carboxamide] the EC50 was < 1 µM.
For `CC1Cn2nc(N)cc2CN1C(=O)c1cc2c(Cl)cccc2[nH]1` (centres unmarked) [Example 9, 5-(4-chloro-1H-indole-2-carbonyl)-6-methyl-4H,5H,6H,7H-pyrazolo[15-a]pyrazin-2-amine], the EC50 was < 1 µM.
`CC(CO)CNc1cc2n(n1)CCN(C(=O)c1cc3ccccc3[nH]1)C2` (centres unmarked) [Example 72, 3-{[5-(1H-indole-2-carbonyl)-4H,5H,6H,7H-pyrazolo[1,5-a]pyrazin-2-yl]amino}-2-methylpropan-1-ol] was tested, and the EC50 was < 1 µM.
`O=C(c1cc2ccccc2[nH]1)N1CCn2nc(NCC3(O)CCC3)cc2C1` [Example 71, 1-({[5-(1H-indole-2-carbonyl)-4H,5H,6H,7H-pyrazolo[1,5-a]pyrazin-2-yl]amino}methyl)cyclobutan-1-ol] was tested, and the EC50 was < 1 µM.
With `O=C(c1cc2ccccc2[nH]1)N1CCn2nc(NS(=O)(=O)C3CC3)cc2C1` [Example 5, N-[5-(1H-indole-2-carbonyl)-4H,5H,6H,7H-pyrazolo[1,5-a]pyrazin-2-yl]cyclopropanesulfonamide] the EC50 was < 1 µM.
In the case of `O=C(c1cc2c(Cl)cc(F)cc2[nH]1)N1CCn2nc(NCC3CCOC3)cc2C1` (centres unmarked) [Example 27, 5-(4-chloro-6-fluoro-1H-indole-2-carbonyl)-N-[(oxolan-3-yl)methyl]-4H,5H,6H,7H-pyrazolo[1,5-a]pyrazin-2-amine], the EC50 is reported as < 1 µM.
`Cn1cc(S(=O)(=O)Nc2cc3n(n2)CCN(C(=O)c2cc4ccccc4[nH]2)C3)cn1` [Example 49, N-[5-(1H-indole-2-carbonyl)-4H,5H,6H,7H-pyrazolo[1,5-a]pyrazin-2-yl]-1-methyl-1H-pyrazole-4-sulfonamide] was tested, and the EC50 was < 1 µM.
With `CN1CC[C@H](C(=O)Nc2cc3n(n2)CCN(C(=O)c2cc4ccccc4[nH]2)C3)[C@@H](F)C1` [Example 89, (3R,4R)-3-fluoro-N-[5-(1H-indole-2-carbonyl)-4H,5H,6H,7H-pyrazolo[1,5-a]pyrazin-2-yl]-1-methylpiperidine-4-carboxamide] the EC50 was < 1 µM.
In the case of `O=C(c1cc2ccccc2[nH]1)N1CCn2nc(N[C@H]3C[C@H](O)C3)cc2C1` [Example 76, (1r,3r)-3-{[5-(1H-indole-2-carbonyl)-4H,5H,6H,7H-pyrazolo[1,5-a]pyrazin-2-yl]amino}cyclobutan-1-ol], the EC50 is reported as < 1 µM.
In the case of `CCc1cccc2[nH]c(C(=O)N3CCn4nc(NCC5CCOC5)cc4C3)cc12` (centres unmarked) [Example 17, 5-(4-ethyl-1H-indole-2-carbonyl)-N-[(oxolan-3-yl)methyl]-4H,5H,6H,7H-pyrazolo[1,5-a]pyrazin-2-amine], the EC50 is reported as < 1 µM.
In the case of `CN1CCC(C(=O)Nc2cc3n(n2)CCN(C(=O)c2cc4ccccc4[nH]2)C3)C(F)C1` (centres unmarked) [Example 88, 3-fluoro-N-[5-(1H-indole-2-carbonyl)-4H,5H,6H,7H-pyrazolo[1,5-a]pyrazin-2-yl]-1-methylpiperidine-4-carboxamide], the EC50 is reported as < 1 µM.
With `O=C(c1cc2c(F)cc(F)cc2[nH]1)N1CCn2nc(NCC3CCOC3)cc2C1` (centres unmarked) [Example 28, 5-(4,6-difluoro-1H-indole-2-carbonyl)-N-[(oxolan-3-yl)methyl]-4H,5H,6H,7H-pyrazolo[1,5-a]pyrazin-2-amine] the EC50 was < 1 µM.
`COCC1(CNc2cc3n(n2)CCN(C(=O)c2cc4ccccc4[nH]2)C3)CC1` [Example 54, 5-(1H-indole-2-carbonyl)-N-{[1-(methoxymethyl)cyclopropyl]methyl}-4H,5H,6H,7H-pyrazolo[1,5-a]pyrazin-2-amine] was tested, and the EC50 was < 1 µM.
For `CC1Cn2nc(N)cc2CN1C(=O)c1cc2ccccc2[nH]1` (centres unmarked) [Example 16, 5-(1H-indole-2-carbonyl)-6-methyl-4H,5H,6H,7H-pyrazolo[1,5-a]pyrazin-2-amine], the EC50 was < 1 µM.
With `O=C(c1cc2ccccc2[nH]1)N1CCn2nc(N[C@H]3CCC[C@@H](O)C3)cc2C1` [Example 77, (1R,3S)-3-{[5-(1H-indole-2-carbonyl)-4H,5H,6H,7H-pyrazolo[1,5-a]pyrazin-2-yl]amino}cyclohexan-1-ol] the EC50 was < 1 µM.
For `COC1(CNc2cc3n(n2)CCN(C(=O)c2cc4ccccc4[nH]2)C3)CCC1` [Example 60, 5-(1H-indole-2-carbonyl)-N-[(1-methoxycyclobutyl)methyl]-4H,5H,6H,7H-pyrazolo[1,5-a]pyrazin-2-amine], the EC50 was < 1 µM.
In the case of `CC(C)OC1(CNc2cc3n(n2)CCN(C(=O)c2cc4ccccc4[nH]2)C3)CCC1` [Example 78, 5-(1H-indole-2-carbonyl)-N-{[1-(propan-2-yloxy)cyclobutyl]methyl}-4H,5H,6H,7H-pyrazolo[1,5-a]pyrazin-2-amine], the EC50 is reported as < 1 µM.
`Cc1noc(C)c1S(=O)(=O)Nc1cc2n(n1)CCN(C(=O)c1cc3ccccc3[nH]1)C2` [Example 46, N-[5-(1H-indole-2-carbonyl)-4H,5H,6H,7H-pyrazolo[1,5-a]pyrazin-2-yl]-3,5-dimethyl-1,2-oxazole-4-sulfonamide] was tested, and the EC50 was < 1 µM.
In the case of `O=C(c1cc2ccccc2[nH]1)N1CCn2nc(NCC3CCCOC3)cc2C1` (centres unmarked) [Example 55, 5-(1H-indole-2-carbonyl)-N-[(oxan-3-yl)methyl]-4H,5H,6H,7H-pyrazolo[1,5-a]pyrazin-2-amine], the EC50 is reported as < 1 µM.
